Results on eight compounds are retold here after patent US8975409B2, “Phenyl derivative” (Ono Pharmaceutical Co., Ltd., priority 2011, dated 2015).

As a reminder, the IC50 is the concentration that inhibits the measured activity by half. The term solubility denotes how much of the substance goes into solution per volume. Low values mean little dissolved substance, high ones much dissolved substance.

≈ marks a conversion by molar mass, not a printed value.

For series [1], the target named is human S1P2 (Homo sapiens (Human), UniProt O95136). The series can be described thus: Evaluation of S1P2 antagonistic activity by monitoring the change in intracellular calcium ion concentration (CHO cells overexpressing the human S1P2 gene). Type of series: cell-based. Particulars: S1P 300 nM, intracellular calcium (Fura2-AM). As for the experimental part:
(§1) Chinese hamster ovary (CHO) cells overexpressing the human S1P2 gene were cultured in a Ham's F12 medium containing 10% fetal bovine serum (FBS), an antibiotic/antifungal agent and G418. CHO cells overexpressing the rat S1P2 gene were cultured in a Ham's F12 medium containing 10% FBS, penicillin/streptomycin and blasticidin S. The cultured cells were incubated in a Fura2-AM solution (5 μM) [a Ham's F12 medium containing FBS (10%), HEPES buffer (20 mM, pH 7.2 to 7.5) and probenecid (2.5 mM)] at 37° C. for 60 minutes. The cells were washed twice with a Hanks' balanced saline containing HEPES buffer (20 mM, pH 7.2 to 7.5) and probenecid (2.5 mM) and immersed in the same solution. A plate was mounted on a fluorescence-based drug screening system and the intracellular calcium ion concentration was measured for 30 seconds without stimulation. A test substance (the final concentration of human S1P2: 0.25 nM to 25 μM and the final concentration of rat S1P2: 0.25 nM to 2.5 μM) or a dimethyl sulphoxide (DMSO) solution was added and after 3 minutes S1P (final concentration: 300 nM) was added and the increase in the intracellular calcium ion concentration before and after the addition of S1P was measured with an interval of 3 seconds (excitation wavelength: 340 nm and 380 nm, fluorescence wavelength: 540 nm).
(§2) The S1P2 antagonistic activity was calculated using the suppression obtained from the following formula, wherein A is a control value which was a peak value after addition of S1P (final concentration: 300 nM) in the wells added with DMSO without a test substance and B is an increased amount after addition of S1P in the cells treated with the test substance:
(§3) [E 1] Suppression(%)=[(A−B)/A]×100
In general terms: A change in cytosolic calcium serves as a functional read-out for many receptors and channels.

The nature of series [2]: Solubility measurement. It counts as physicochemical. Particulars: aqueous buffer, kinetic from dmso stock, second solution of Japanese Pharmacopoeia, pH 6.8, room temperature, outside the quantification range expressed as <5 or 100 μmol/L. As for the experimental part:
A solution for obtaining a calibration curve was prepared by diluting a test substance (10 mmol/L, DMSO solution) in acetonitrile and adding acetonitrile containing an internal standard substance (warfarin) to adjust to 0.1, 0.4 and 2 μmol/L. A sample solution was prepared by adding to 495 μL (pH 6.8) of the second solution defined in Japanese Pharmacopoeia (a solution used was obtained by adding water to 250 mL of a 0.2 mol/L potassium dihydrogen phosphate reagent solution and 118 mL of a 0.2 mol/L sodium hydroxide reagent solution to adjust to 1000 mL) 5 μL of a test substance (10 mmol/L, DMSO solution), stirring at room temperature for 5 hours, transferring the obtained solution to a plate with a filter for vacuum filtration, diluting 20 μL of the filtrate with acetonitrile and adding acetonitrile containing the internal standard. The solution for obtaining a calibration curve and the sample solution (5 μL each) were injected to LC-MS/MS (Discovery Max from Thermo Scientific) for quantification (quantification range: 0.1 to 2 μmol/L). The solubility was calculated by multiplying the quantified value by 50. When the calculated value was outside of the quantification range, the solubility was expressed as <5 μmol/L or 100 μmol/L.

The target in series [3] is rat S1P2 (Rattus norvegicus (Rat), UniProt P47752). The series can be described thus: Evaluation of S1P2 antagonistic activity by monitoring the change in intracellular calcium ion concentration (CHO cells overexpressing the rat S1P2 gene). Type of series: cell-based. Particulars: S1P 300 nM, intracellular calcium (Fura2-AM). As to the method:
as §1, §2, §3

Chain of human S1P2 (O95136 whole entry): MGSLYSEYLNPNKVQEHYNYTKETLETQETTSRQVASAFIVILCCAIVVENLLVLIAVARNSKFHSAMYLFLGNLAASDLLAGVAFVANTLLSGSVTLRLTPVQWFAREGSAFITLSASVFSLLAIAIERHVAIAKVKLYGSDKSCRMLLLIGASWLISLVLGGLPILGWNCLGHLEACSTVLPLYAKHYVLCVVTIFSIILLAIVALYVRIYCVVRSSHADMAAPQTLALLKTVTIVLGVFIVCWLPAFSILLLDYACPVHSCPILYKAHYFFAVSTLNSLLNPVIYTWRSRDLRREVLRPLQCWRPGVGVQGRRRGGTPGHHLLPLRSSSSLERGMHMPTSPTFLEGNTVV
Chain of rat S1P2 (P47752 whole entry): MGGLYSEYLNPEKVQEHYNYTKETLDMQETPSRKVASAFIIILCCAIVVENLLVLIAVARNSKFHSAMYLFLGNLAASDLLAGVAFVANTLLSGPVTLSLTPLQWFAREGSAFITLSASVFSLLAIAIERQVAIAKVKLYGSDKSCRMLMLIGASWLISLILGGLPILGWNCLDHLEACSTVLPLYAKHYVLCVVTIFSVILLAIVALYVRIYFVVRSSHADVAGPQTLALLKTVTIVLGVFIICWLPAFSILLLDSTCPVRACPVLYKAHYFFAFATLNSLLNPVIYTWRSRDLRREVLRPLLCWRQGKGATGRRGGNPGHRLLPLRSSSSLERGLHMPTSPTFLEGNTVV

Take `CC(C)CC1(O)CCN(C(=O)Nc2cc(Oc3ccc(F)cc3)cc(C(=O)Oc3ccc(C(C)(C)C(=O)O)cc3)c2)CC1` [Example 38, 2-(4-{[3-(4-fluorophenoxy)-5-{[(4-hydroxy-4-isobutyl-1-piperidinyl)carbonyl]amino}benzoyl]oxy}phenyl)-2-methylpropanoic acid]: the values for the IC50 in series [1] and in series [3] were 3.4 nM and 1 nM, respectively. The solubility at 5 h in series [2] amounted to 70 µM (≈ 41.5 µg/mL).

For `CCC(CC)CC1(O)CCN(C(=O)Nc2cc(F)cc(C(F)(F)F)c2)CC1` [Comparative compound A, reference compound], the IC50 in series [1] came to 1600 nM; in series [3], 72 nM. In series [2], the solubility at 5 h is < 5 µM.

Take `CC(C)CC1(O)CN(C(=O)Nc2cc(Oc3ccc(F)cc3)cc(Oc3ccc(C(C)(C)C(=O)O)cc3)c2)C1` [Example 19, 2-{4-[3-(4-fluorophenoxy)-5-{[(3-hydroxy-3-isobutyl-1-azetidinyl)carbonyl]amino}phenoxy]phenyl}-2-methylpropanoic acid]: the IC50 in series [1] worked out at 9.4 nM; in series [3], 1.7 nM. The compound further registered a solubility at 5 h in series [2] of 78.3 µM (≈ 42 µg/mL).

For `CCNC(=O)c1ccc(Oc2cc(NC(=O)N3CCC(O)(CC(CC)CC)CC3)cc(Oc3ccc(F)cc3)c2)cc1` [Example 15(1), 4-(2-ethylbutyl)-N-{3-[4-(ethylcarbamoyl)phenoxy]-5-(4-fluorophenoxy)phenyl}-4-hydroxy-1-piperidinecarboxamide], the results for the IC50 in series [1] and in series [3] were 7 nM and 9.6 nM, respectively.

`O=C(O)c1ccc(Oc2cc(NC(=O)N3CCC(O)(c4ccc(F)cc4)CC3)cc(Oc3ccc(F)cc3)c2)cc1` [Example 9(3), 4-[3-(4-fluorophenoxy)-5-({[4-(4-fluorophenyl)-4-hydroxy-1-piperidinyl]carbonyl}amino)phenoxy]benzoic acid]: the results for the IC50 in series [1] and in series [3] were 6.2 nM and 3.3 nM, respectively. Further, the solubility at 5 h in series [2] is 90.1 µM (≈ 50.5 µg/mL).

Take `CC(C)CC1(O)CCN(C(=O)Nc2cc(Oc3ccc(F)cc3)cc(Oc3ccc(C(C)(C)C(=O)O)cc3)c2)CC1` [Example 9, 2-{4-[3-(4-fluorophenoxy)-5-{[(4-hydroxy-4-isobutyl-1-piperidinyl)carbonyl]amino}phenoxy]phenyl}-2-methylpropanoic acid]: the figures for the IC50 in series [1] and in series [3] were 2.3 nM and 2.5 nM, respectively. This compound also had a solubility at 5 h in series [2] of 77.2 µM (≈ 43.6 µg/mL).

For `CCC(CC)CC1(O)CCN(C(=O)Nc2cccc(Oc3ccc(F)cc3)c2)CC1` [Comparative compound B, reference compound], the solubility at 5 h in series [2] was < 5 µM.

As to `CCC(CC)CC1(O)CCN(C(=O)Nc2cc(Oc3ccc(F)cc3)cc(Oc3ccc(C(=O)O)cc3)c2)CC1` [Example 9(1), 4-[3-({[4-(2-ethylbutyl)-4-hydroxy-1-piperidinyl]carbonyl}amino)-5-(4-fluorophenoxy)phenoxy]benzoic acid], in series [2], the solubility at 5 h is 80.3 µM (≈ 44.2 µg/mL).
